Source: ChEMBL document CHEMBL1201862, “PubChem BioAssay data set” (2004)
Calls of active or inactive are those of the source.

Columns and labels:
Format in all cases: functional
Cannabinoid receptor 1 [1] = target: T1, Cannabinoid receptor 1 (Homo sapiens, UniProt P21554); test: SAR analysis of antagonists of the Cannabinoid Receptor 1 using an Image-Based Assay - Set 3. [Related pubchem assays (depositor defined):AID1961, AID1965]
Cannabinoid receptor 2 [2] = target: T2, Cannabinoid receptor 2 (Homo sapiens, UniProt P34972); test: SAR analysis of antagonists of the Cannabinoid Receptor 2 using an Image-Based Assay - Set 2. [Related pubchem assays (depositor defined):AID1961, AID1965]
Cannabinoid receptor 1 [3] = target: T1, Cannabinoid receptor 1; test: SAR analysis of agonists of the Cannabinoid Receptor 1 using an Image-Based Assay - Set 3. [Related pubchem assays (depositor defined):AID1961, AID1965]
[4] = target: G-protein coupled receptor 55 (Homo sapiens, UniProt Q9Y2T6); test: SAR analysis of selective Agonists of GPR55 using an Image-Based Assay - Set 2. [Related pubchem assays (depositor defined):AID1961, AID1965]
[5] = target: T3, G-protein coupled receptor 35 (Homo sapiens, UniProt Q9HC97); test: SAR analysis of Antagonists of the GPR35 Receptor using an Image-Based Assay - Set 4. [Related pubchem assays (depositor defined):[…]]
Cannabinoid receptor 2 [6] = target: T2, Cannabinoid receptor 2; test: SAR analysis of agonists of the Cannabinoid Receptor 2 using an Image-Based Assay - Set 2. [Related pubchem assays (depositor defined):AID1961, AID1965]
[7] = target: T3, G-protein coupled receptor 35; test: SAR analysis of Agonists of the GPR35 Receptor using an Image-Based Assay - Set 3. [Related pubchem assays (depositor defined):AID1961, AID1965]
[8] = target: T4, Kappa-type opioid receptor (Homo sapiens, UniProt P41145); test: SAR analysis of small molecule agonists of the kappa opioid receptor via a luminescent beta-arrestin assay - Set 3. [Related pubchem assays (depositor defined):AID1777, AID1785, AID1786, AID1966, AID2133, AID2136, AID2284, AID2500]
Mu-type opioid receptor = Mu-type opioid receptor (Homo sapiens, UniProt P35372); test: SAR Analysis of Agonists of the MOR Receptor using an Image-Based Assay - Set 3. [Related pubchem assays (depositor defined):AID1777, AID1785, AID1786, AID1966, AID2133, AID2136, AID2284, AID2285, AID2352]
[9] = target: T4, Kappa-type opioid receptor; test: kappa opioid receptor activation by imaging – image-based, set 3, SAR follow-up (AID 488833)
[10] = target: Delta-type opioid receptor (Homo sapiens, UniProt P41143); test: SAR Analysis of Agonists of the DOR Receptor using an Image-Based Assay - Set 3. [Related pubchem assays (depositor defined):AID1777, AID1786]
[11] = target: T5, Sphingosine 1-phosphate receptor 4 (Homo sapiens, UniProt O95977); test: Late-stage fluorescence dose response cell-based assay to identify agonists of the Sphingosine 1-Phosphate Receptor 4 (S1P4): purchased compounds EC50. [Related pubchem assays (depositor defined):AID1509, AID1523, AID1563, AID1686, AID1701, AID1801]
T5 sequence (O95977 whole entry): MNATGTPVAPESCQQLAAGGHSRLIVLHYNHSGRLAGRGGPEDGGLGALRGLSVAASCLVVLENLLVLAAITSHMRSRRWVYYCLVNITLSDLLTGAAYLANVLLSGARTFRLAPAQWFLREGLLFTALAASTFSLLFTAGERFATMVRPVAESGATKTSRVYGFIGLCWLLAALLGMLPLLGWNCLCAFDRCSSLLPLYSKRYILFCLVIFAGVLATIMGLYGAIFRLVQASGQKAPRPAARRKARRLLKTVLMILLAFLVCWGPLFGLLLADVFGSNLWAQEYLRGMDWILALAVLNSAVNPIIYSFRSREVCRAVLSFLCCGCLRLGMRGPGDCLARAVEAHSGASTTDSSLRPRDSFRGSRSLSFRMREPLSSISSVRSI

T2 sequence (P34972 whole entry): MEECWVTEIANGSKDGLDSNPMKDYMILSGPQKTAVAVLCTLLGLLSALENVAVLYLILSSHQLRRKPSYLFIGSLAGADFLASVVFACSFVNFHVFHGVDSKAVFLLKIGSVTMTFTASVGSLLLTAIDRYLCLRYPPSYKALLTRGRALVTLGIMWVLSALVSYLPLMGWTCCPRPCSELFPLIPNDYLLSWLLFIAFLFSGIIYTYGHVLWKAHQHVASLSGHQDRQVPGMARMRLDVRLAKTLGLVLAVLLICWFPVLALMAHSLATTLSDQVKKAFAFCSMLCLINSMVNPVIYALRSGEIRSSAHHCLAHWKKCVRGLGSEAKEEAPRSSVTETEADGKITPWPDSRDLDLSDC
T4 sequence (P41145 whole entry): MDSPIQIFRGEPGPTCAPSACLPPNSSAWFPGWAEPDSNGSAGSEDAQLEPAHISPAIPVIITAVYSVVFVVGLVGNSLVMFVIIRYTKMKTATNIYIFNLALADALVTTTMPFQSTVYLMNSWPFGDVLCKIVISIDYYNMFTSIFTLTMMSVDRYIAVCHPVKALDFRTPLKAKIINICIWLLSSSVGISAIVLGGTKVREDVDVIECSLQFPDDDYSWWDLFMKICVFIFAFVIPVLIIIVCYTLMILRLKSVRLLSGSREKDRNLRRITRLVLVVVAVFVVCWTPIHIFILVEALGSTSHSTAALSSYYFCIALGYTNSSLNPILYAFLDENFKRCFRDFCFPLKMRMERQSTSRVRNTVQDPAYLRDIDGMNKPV
T3 sequence (Q9HC97 whole entry): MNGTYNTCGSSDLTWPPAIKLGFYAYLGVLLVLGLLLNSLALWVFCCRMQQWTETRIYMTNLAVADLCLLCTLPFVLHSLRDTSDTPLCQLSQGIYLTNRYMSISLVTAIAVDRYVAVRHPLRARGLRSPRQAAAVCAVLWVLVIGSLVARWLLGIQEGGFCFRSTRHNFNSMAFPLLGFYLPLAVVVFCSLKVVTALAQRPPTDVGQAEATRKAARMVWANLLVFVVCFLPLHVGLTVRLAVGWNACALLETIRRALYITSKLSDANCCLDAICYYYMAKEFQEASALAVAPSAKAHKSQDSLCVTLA
T1 sequence (P21554 whole entry): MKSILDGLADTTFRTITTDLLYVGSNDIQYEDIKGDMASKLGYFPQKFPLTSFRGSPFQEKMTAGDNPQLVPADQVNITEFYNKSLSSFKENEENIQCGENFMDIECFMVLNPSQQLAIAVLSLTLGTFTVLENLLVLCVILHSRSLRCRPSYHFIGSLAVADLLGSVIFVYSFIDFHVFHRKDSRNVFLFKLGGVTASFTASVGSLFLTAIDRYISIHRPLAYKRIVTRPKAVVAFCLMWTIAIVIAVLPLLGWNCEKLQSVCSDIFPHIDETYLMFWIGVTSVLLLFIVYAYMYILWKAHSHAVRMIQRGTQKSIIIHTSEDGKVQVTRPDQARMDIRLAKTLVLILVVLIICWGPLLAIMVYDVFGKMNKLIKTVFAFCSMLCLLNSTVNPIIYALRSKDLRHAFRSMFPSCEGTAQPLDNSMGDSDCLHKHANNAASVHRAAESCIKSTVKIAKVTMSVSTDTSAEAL
Chain of Delta-type opioid receptor (P41143 whole entry): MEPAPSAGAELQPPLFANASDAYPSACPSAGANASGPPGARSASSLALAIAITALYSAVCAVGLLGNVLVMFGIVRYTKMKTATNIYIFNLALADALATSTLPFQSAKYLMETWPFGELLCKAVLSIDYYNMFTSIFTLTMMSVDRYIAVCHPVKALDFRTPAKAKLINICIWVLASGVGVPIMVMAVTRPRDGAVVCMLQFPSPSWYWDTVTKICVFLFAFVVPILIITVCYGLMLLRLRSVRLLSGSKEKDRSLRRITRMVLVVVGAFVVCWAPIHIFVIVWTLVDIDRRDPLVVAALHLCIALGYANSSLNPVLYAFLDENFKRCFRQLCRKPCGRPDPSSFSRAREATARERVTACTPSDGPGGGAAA
Chain of Mu-type opioid receptor (P35372 whole entry): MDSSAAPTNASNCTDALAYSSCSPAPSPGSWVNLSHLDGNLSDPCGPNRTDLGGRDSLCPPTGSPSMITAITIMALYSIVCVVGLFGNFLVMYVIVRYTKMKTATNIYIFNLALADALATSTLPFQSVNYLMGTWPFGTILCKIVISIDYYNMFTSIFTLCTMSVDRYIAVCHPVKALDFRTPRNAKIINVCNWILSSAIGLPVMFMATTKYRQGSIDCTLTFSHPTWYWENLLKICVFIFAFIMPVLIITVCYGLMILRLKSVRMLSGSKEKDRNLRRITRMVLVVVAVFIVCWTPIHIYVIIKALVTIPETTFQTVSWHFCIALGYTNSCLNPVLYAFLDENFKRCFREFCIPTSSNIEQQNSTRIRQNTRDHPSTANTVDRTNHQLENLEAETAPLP
Chain of G-protein coupled receptor 55 (Q9Y2T6 whole entry): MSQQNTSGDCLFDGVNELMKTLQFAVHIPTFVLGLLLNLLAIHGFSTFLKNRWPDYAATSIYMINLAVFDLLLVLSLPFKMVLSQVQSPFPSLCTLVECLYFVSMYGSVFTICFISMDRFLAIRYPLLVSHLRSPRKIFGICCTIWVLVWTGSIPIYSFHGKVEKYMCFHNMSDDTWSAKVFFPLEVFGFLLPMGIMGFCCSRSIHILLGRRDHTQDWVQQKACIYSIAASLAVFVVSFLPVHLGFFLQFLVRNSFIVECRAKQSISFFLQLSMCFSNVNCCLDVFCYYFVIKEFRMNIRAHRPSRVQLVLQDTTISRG

Structure (SMILES): Cc1ccc(-c2csc(NC(=O)CSc3nnc4cc(C)c5ccccc5n34)n2)cc1
- IC50 (Cannabinoid receptor 1 [1]): > 32 µM (inactive)
- IC50 (Cannabinoid receptor 2 [2]): > 32 µM (inactive)
- EC50 (Cannabinoid receptor 1 [3]): > 32 µM (inactive)
- EC50 [4]: 11.5 µM (inactive)
- IC50 [5]: > 32 µM (inactive)
- EC50 (Cannabinoid receptor 2 [6]): > 32 µM (inactive)
- EC50 [7]: > 32 µM (inactive)

Structure (SMILES): COc1cccc(CSc2nnc(-c3ccccn3)n2Cc2cccs2)c1
- EC50 [8]: 8.72 µM (active)
- EC50 (Mu-type opioid receptor): > 32 µM (inactive)
- EC50 [9]: 12.2 µM (inactive)
- EC50 [10]: > 32 µM (inactive)

Structure (SMILES): Cc1ccc(OCC(=O)Nc2cccc(Cl)c2)c([N+](=O)[O-])n1
- EC50 [11]: > 50 µM (inactive)
